Reference: patent publication US10189809B2, “SGC stimulators” (Ironwood Pharmaceuticals, Inc., priority 2010, dated 2019)
Where two headings read alike, the source gives them in different places.

Assays:
[1] = molecular target: T1, soluble guanylate cyclase (sGC) (Homo sapiens (Human), UniProt Q02108+Q02153); experiment: sGC-HEK-cGMP assay run in the absence of SNP (HEK WC assay); type: cell-based; settings: compound at 30 μM, absence of SNP
Experimental: Human embryonic kidney cells (HEK293), endogenously expressing soluble guanylate cyclase (sGC), were used to evaluate the activity of test compounds. Compounds stimulating the sGC receptor should cause an increase in the intracellular concentration of cGMP. HEK 293 cells were seeded in Dulbecco's Modification of Eagle's Medium supplemented with fetal bovine serum (10% final) and L-glutamine (2 mM final) in a 200 μL volume at a density of 1×10^5 cells/well in a poly-D-lysine coated 96 well flat bottom plate and grown overnight at 37° C. Medium was aspirated and cells were washed with 1× Hank's Buffered Saline Salt Solution (200 μL). Cells were then incubated for 15 minutes at 37° C. with 0.5 mM 3-isobutyl-1-methylxanthine (200 μL). Test article was then added to the assay mixture (2 μL) and incubated at 37° C. for 10 minutes. After the 10 minute incubation, the assay mixture was aspirated and 0.1M HCl (200 μL) was added to the cells. The plate was incubated at 4° C. for 30 minutes in the 0.1M HCl to stop the reaction and lysed the cells. The plates were then centrifuged at 1,200 g for 5 minutes at room temperature. Supernatants were collected and transferred to a new flat bottom 96 well plate for analysis. Vehicle controls were carried out using DMSO (1%). A known sGC stimulator, BAY 41-2272, was used as the positive control. Samples were diluted with an equal volume of 1 M Ammonium Acetate (pH 7) to neutralize samples for better chromatography. A 2× cGMP standard curve was prepared in 0.1 M HCl and then diluted with an equal volume of 1 M Ammonium Acetate, with the following final concentrations in nM: 1024, 512, 256, 128, 64, 32, 16, 8, 4, 2, 1. cGMP concentrations were determined from each sample using the LC/MS conditions (Table 2 below) and calculated standard curve. EC50 values were calculated from concentration-response curves generated with GraphPad Prism Software.

[2] = molecular target: T1, soluble guanylate cyclase (sGC); experiment: sGC-HEK-cGMP assay run with SNP incubation (HEK WC assay); type: cell-based; settings: for HEK WC Assay (fold increase at 30 μM in the presence of 10 μM SNP): compound at 30 μM; for EC50: in the presence of 10 uM SNP
How it was run: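 HEK293 cells with endogenous sGC were pretreated with 0.5 mM IBMX for 15 min at 37 °C, then exposed to test compound plus sodium nitroprusside for 10 min at 37 °C.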

[3] = read-out: HEK WC Assay (% Emax at 10 μM with 10 uM SNP)
[4] = read-out: HEK WC Assay (% Emax at 30 μM with 10 uM SNP)
[5] = read-out: HEK WC Assay (% Emax at 1 μM with 10 uM SNP)

T1 sequence (Q02153 whole entry): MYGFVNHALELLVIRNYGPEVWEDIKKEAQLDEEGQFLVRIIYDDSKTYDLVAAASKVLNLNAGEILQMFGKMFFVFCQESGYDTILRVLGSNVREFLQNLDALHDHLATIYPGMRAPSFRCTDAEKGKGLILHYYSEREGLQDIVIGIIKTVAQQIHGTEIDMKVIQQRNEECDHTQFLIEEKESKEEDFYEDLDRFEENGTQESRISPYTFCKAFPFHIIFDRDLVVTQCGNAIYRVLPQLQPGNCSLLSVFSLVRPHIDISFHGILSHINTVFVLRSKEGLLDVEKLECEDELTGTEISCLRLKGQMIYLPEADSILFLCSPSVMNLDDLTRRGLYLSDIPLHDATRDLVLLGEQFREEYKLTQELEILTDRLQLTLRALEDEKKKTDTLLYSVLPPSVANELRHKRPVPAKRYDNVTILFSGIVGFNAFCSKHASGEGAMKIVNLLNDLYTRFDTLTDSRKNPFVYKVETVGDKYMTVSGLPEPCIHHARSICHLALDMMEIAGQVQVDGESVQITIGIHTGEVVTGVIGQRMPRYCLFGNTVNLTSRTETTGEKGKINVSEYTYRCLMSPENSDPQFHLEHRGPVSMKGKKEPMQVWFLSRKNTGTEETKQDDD
T1 sequence (Q02108 whole entry): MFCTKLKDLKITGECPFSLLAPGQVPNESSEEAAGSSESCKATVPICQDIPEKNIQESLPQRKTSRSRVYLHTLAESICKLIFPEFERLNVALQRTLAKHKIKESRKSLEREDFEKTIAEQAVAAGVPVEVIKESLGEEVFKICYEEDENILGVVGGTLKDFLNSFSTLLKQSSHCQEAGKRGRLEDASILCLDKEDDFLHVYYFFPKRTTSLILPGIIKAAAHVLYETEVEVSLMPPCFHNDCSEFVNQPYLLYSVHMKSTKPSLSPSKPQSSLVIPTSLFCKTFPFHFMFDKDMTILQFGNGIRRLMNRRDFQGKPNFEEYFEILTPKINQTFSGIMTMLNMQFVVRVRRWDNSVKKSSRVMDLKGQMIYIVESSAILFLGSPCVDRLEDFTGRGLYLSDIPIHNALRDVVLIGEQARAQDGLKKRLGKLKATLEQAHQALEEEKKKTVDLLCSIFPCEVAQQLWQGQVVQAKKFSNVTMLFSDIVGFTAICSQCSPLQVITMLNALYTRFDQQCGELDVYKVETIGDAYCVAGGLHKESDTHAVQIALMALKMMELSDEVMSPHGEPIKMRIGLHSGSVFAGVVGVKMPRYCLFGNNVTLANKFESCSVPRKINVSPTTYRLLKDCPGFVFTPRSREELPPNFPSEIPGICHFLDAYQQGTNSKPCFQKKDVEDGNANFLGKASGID

| Structure (SMILES) | HEK WC Assay (fold increase at 30 μM in the absence of SNP) [1] | HEK WC Assay (fold increase at 30 μM in the presence of 10 μM SNP) [2] | Emax [2, 3] [%] | Emax [2, 4] [%] | EC50 [2] [µM] | Emax [2, 5] [%] | Emax at 10 µM ([2]; read-out: HEK WC Assay (% Emax at 10 μM/with 10 uM SNP)) [%] | Emax at 30 µM ([2]; read-out: HEK WC Assay (% Emax at 30 μM/with 10 uM SNP)) [%] |
| --- | --- | --- | --- | --- | --- | --- | --- | --- |
| Nc1nc(-c2cc(-c3ccon3)n(Cc3ccccc3F)n2)ncc1NC(=O)c1cccc(Cl)c1 [Compound I-187] | D (D = 5 to <10 fold increase) | F (F = 20 to <30 fold increase) | 60 to 80 | 60 to 80 | < 20 | 40 to 60 | – | – |
| CC(=O)Nc1c(N)nc(-c2cc(-c3ccon3)n(Cc3ccccc3F)n2)nc1N [Compound I-141] | B (B = 1 to <2 fold increase) | C (C = 2 to <5 fold increase) | 0 to 10 | 0 to 10 | – | – | – | – |
| Oc1nc(-c2cc(-c3ccon3)n(Cc3ccccc3F)n2)ncc1Br [Compound I-192] | D (D = 5 to <10 fold increase) | E (E = 10 to <20 fold increase) | 40 to 60 | 40 to 60 | < 20 | 20 to 40 | – | – |
| c1cnc(-c2cc(-c3ccon3)n(Cc3cncnc3)n2)nc1 [Compound I-208] | B (B = 1 to <2 fold increase) | D (D = 5 to <10 fold increase) | 10 to 20 | 10 to 20 | 100 to 300 | 0 to 10 | – | – |
| Nc1nc(-c2cc(-c3ccon3)n(Cc3ccccc3F)n2)ncc1NC(=O)[C@@H]1CCCN1C(=O)C(F)(F)F [Compound I-219] | D (D = 5 to <10 fold increase) | E (E = 10 to <20 fold increase) | 60 to 80 | 60 to 80 | < 20 | 20 to 40 | – | – |
| Nc1nc(-c2cc(-c3ccon3)n(Cc3ccccc3F)n2)ncc1NC(=O)c1cccc(O)n1 [Compound I-193] | E (E = 10 to <20 fold increase) | E (E = 10 to <20 fold increase) | 40 to 60 | 60 to 80 | < 20 | 10 to 20 | – | – |
| COc1ccc(CNc2nc(-c3cc(-c4ccon4)n(Cc4ccccc4F)n3)ncc2C(C)(C)O)cc1 [Compound I-135] | C (C = 2 to <5 fold increase) | D (D = 5 to <10 fold increase) | 10 to 20 | 10 to 20 | – | – | 0 to 10 | 0 to 10 |
| Nc1nc(-c2cc(-c3ccon3)n(Cc3ccccc3F)n2)ncc1NCc1ccccc1 [Compound I-223] | C (C = 2 to <5 fold increase) | E (E = 10 to <20 fold increase) | 10 to 20 | 10 to 20 | 100 to 300 | 0 to 10 | – | – |
| Nc1cnc(-c2cc(-c3ncco3)n(Cc3ccccc3F)n2)nc1N [Compound I-149] | C (C = 2 to <5 fold increase) | D (D = 5 to <10 fold increase) | 60 to 80 | 80 to 100 | 20 to 40 | – | – | – |
| Nc1nc(-c2cc(-c3ccon3)n(Cc3ccccc3F)n2)ncc1NC(=O)c1ccccc1OC(F)(F)F [Compound I-211] | D (D = 5 to <10 fold increase) | E (E = 10 to <20 fold increase) | 20 to 40 | 40 to 60 | 20 to 40 | 20 to 40 | – | – |
| CNc1cnc(-c2cc(-c3ccon3)n(Cc3ccccc3F)n2)nc1N [Compound I-143] | C (C = 2 to <5 fold increase) | D (D = 5 to <10 fold increase) | 40 to 60 | 40 to 60 | 40 to 60 | – | – | – |

Now from value to compound:

| HEK WC Assay (fold increase at 30 μM in the absence of SNP) [1] | HEK WC Assay (fold increase at 30 μM in the presence of 10 μM SNP) [2] | Emax [2, 3] [%] | Emax [2, 4] [%] | EC50 [2] [µM] | Emax [2, 5] [%] | Emax at 10 µM ([2]; read-out: HEK WC Assay (% Emax at 10 μM/with 10 uM SNP)) [%] | Emax at 30 µM ([2]; read-out: HEK WC Assay (% Emax at 30 μM/with 10 uM SNP)) [%] | Structure (SMILES) |
| --- | --- | --- | --- | --- | --- | --- | --- | --- |
| B (B = 1 to <2 fold increase) | B (B = 1 to <2 fold increase) | 0 to 10 | 0 to 10 | – | – | – | – | Fc1ccccc1Cn1nc(-c2cccc(Br)n2)cc1-c1ccccn1 [Compound I-308, 2-Bromo-6-(1-(2-fluorobenzyl)-5-(pyridin-2-yl)-1H-pyrazol-3-yl)pyridine] |
| C (C = 2 to <5 fold increase) | D (D = 5 to <10 fold increase) | 20 to 40 | 20 to 40 | – | – | – | – | Fc1ccccc1Cn1nc(-c2ccccn2)cc1-c1cnco1 [Compound I-285] |
| B (B = 1 to <2 fold increase) | B (B = 1 to <2 fold increase) | 0 to 10 | 0 to 10 | – | – | – | – | Fc1ccccc1Cn1nc(-c2ccccn2)cc1-n1cncn1 [Compound I-289] |
| C (C = 2 to <5 fold increase) | C (C = 2 to <5 fold increase) | 0 to 10 | 0 to 10 | – | – | – | – | Fc1ccccc1Cn1nc(-c2ccccn2)cc1-c1cccc(Br)n1 [Compound I-313, 2-Bromo-6-(1-(2-fluorobenzyl)-3-(pyridin-2-yl)-1H-pyrazol-5-yl)pyridine] |
| E (E = 10 to <20 fold increase) | F (F = 20 to <30 fold increase) | 80 to 100 | 80 to 100 | < 20 | 80 to 100 | – | – | Nc1nc(-c2cc(-c3ccon3)n(Cc3ccccc3F)n2)ncc1NC(=O)C12CC3CC(CC(C3)C1)C2 [Compound I-233] |
| E (E = 10 to <20 fold increase) | E (E = 10 to <20 fold increase) | 80 to 100 | 80 to 100 | < 20 | 60 to 80 | – | – | CC1(C(=O)Nc2cnc(-c3cc(-c4ccon4)n(Cc4ccccc4F)n3)nc2N)CCCCC1 [Compound I-231] |
| B (B = 1 to <2 fold increase) | – | 0 to 10 | 0 to 10 | – | – | – | – | Oc1ccc(-c2cc(-c3ccccn3)nn2Cc2ccccc2F)cc1 [Compound I-310] |
| D (D = 5 to <10 fold increase) | E (E = 10 to <20 fold increase) | 60 to 80 | 60 to 80 | < 20 | 40 to 60 | – | – | Nc1nc(-c2cc(-c3ccon3)n(Cc3ccccc3F)n2)ncc1NC(=O)/C=C/c1ccccc1 [Compound I-239] |
| C (C = 2 to <5 fold increase) | C (C = 2 to <5 fold increase) | 0 to 10 | 0 to 10 | – | – | – | – | Fc1ccccc1Cn1nc(-c2ncccn2)cc1C1CCC1 [Compound I-307] |
